From patent US12617779B2, “Self degradation-type CDK9 inhibitor prodrug and liposome encapsulating same” (Sumitomo Pharma Co., Ltd., priority 2021, dated 2026)

Experiment: Evaluation of conversion rate to active form in buffer solution (Experimental Example 1)
Assay type: physicochemical
Settings: for Conversion to Alvocidib at pH 7.4: pH 7.4, 37° C., up to 3 hours
Procedure: For Examples 1 to 16 and Comparative Examples 1 to 14, the attrition rate of the test compound and the conversion rate of the test compound to Alvocidib in a buffer solution were calculated by the following method.
Examples 1 to 16 and Comparative Examples 1 to 14 were each left in buffer solutions adjusted to pH 5.0, 5.5, 6.0, 6.5, 7.0 and 7.4, respectively, at a concentration of 25 umol/L at 37° C. After 0, 0.5, 1, 2 and 3 hours, the residual rates of the compounds of Examples […] and the production rate of Alvocidib were determined by HPLC.
The buffer solutions used at each pH are as follows. • pH 5.0: 50 mM citrate buffer solution (pH 5.0) • pH 5.5: 50 mM citrate buffer solution (pH 5.5) • pH 6.0: 50 mM phosphate buffer solution (pH 6.0) • pH 6.5: 50 mM phosphate buffer solution (pH 6.5) • pH 7.0: 50 mM phosphate buffer solution (pH 7.0) • pH 7.4: 50 mM phosphate buffer solution (pH 7.4)
The measurement conditions for HPLC are as follows.

CNC(=O)O[C@@H]1CN(C)CC[C@@H]1c1c(O)cc(O)c2c(=O)cc(-c3ccccc3Cl)oc12 [Comparative Example 5, reference compound]
Production rate of Alvocidib (pH5.0, 0 hr): 0.0% | Residual rate (pH5.0, 0 hr): 93.9% | Production rate of Alvocidib (pH5.0, 0.5 hr): 0.0% | Residual rate (pH5.0, 0.5 hr): 93.5% | Production rate of Alvocidib (pH5.0, 1 hr): 0.0% | Residual rate (pH5.0, 1 hr): 93.4% | Production rate of Alvocidib (pH5.0, 2 hr): 0.0% | Residual rate (pH5.0, 2 hr): 93.9% | Production rate of Alvocidib (pH5.0, 3 hr): 0.0% | Residual rate (pH5.0, 3 hr): 93.9% | Production rate of Alvocidib (pH5.5, 0 hr): 0.0% | Residual rate (pH5.5, 0 hr): 93.9% | Production rate of Alvocidib (pH5.5, 0.5 hr): 0.0% | Residual rate (pH5.5, 0.5 hr): 93.8% | Production rate of Alvocidib (pH5.5, 1 hr): 0.0% | Residual rate (pH5.5, 1 hr): 93.8% | Production rate of Alvocidib (pH5.5, 2 hr): 0.0% | Residual rate (pH5.5, 2 hr): 94.0% | Production rate of Alvocidib (pH5.5, 3 hr): 0.0% | Residual rate (pH5.5, 3 hr): 93.6% | Production rate of Alvocidib (pH6.0, 0 hr): 0.0% | Residual rate (pH6.0, 0 hr): 93.5% | Production rate of Alvocidib (pH6.0, 0.5 hr): 0.0% | Residual rate (pH6.0, 0.5 hr): 94.0% | Production rate of Alvocidib (pH6.0, 1 hr): 0.0% | Residual rate (pH6.0, 1 hr): 93.5% | Production rate of Alvocidib (pH6.0, 2 hr): 0.0% | Residual rate (pH6.0, 2 hr): 93.9% | Production rate of Alvocidib (pH6.0, 3 hr): 0.0% | Residual rate (pH6.0, 3 hr): 94.0% | Production rate of Alvocidib (pH6.5, 0 hr): 0.0% | Residual rate (pH6.5, 0 hr): 93.5% | Production rate of Alvocidib (pH6.5, 0.5 hr): 0.0% | Residual rate (pH6.5, 0.5 hr): 93.9% | Production rate of Alvocidib (pH6.5, 1 hr): 0.0% | Residual rate (pH6.5, 1 hr): 93.6% | Production rate of Alvocidib (pH6.5, 2 hr): 0.0% | Residual rate (pH6.5, 2 hr): 93.5% | Production rate of Alvocidib (pH6.5, 3 hr): 0.0% | Residual rate (pH6.5, 3 hr): 93.5% | Production rate of Alvocidib (pH7.0, 0 hr): 0.0% | Residual rate (pH7.0, 0 hr): 93.9% | Production rate of Alvocidib (pH7.0, 0.5 hr): 0.0% | Residual rate (pH7.0, 0.5 hr): 93.4% | Production rate of Alvocidib (pH7.0, 1 hr): 0.0% | Residual rate (pH7.0, 1 hr): 93.8% | Production rate of Alvocidib (pH7.0, 2 hr): 0.0% | Residual rate (pH7.0, 2 hr): 93.9% | Production rate of Alvocidib (pH7.0, 3 hr): 0.0% | Residual rate (pH7.0, 3 hr): 93.3% | Production rate of Alvocidib (pH7.4, 0 hr): 0.0% | Residual rate (pH7.4, 0 hr): 93.3% | Conversion to Alvocidib at pH 7.4: slowly converted to Alvocidib | Production rate of Alvocidib (pH7.4, 0.5 hr): 0.0% | Residual rate (pH7.4, 0.5 hr): 93.9% | Production rate of Alvocidib (pH7.4, 1 hr): 0.0% | Residual rate (pH7.4, 1 hr): 93.9% | Production rate of Alvocidib (pH7.4, 2 hr): 0.0% | Residual rate (pH7.4, 2 hr): 93.4% | Production rate of Alvocidib (pH7.4, 3 hr): 0.0% | Residual rate (pH7.4, 3 hr): 93.4%

CCCCCCC(=O)O[C@@H]1CN(C)CC[C@@H]1c1c(O)cc(O)c2c(=O)cc(-c3ccccc3Cl)oc12 [Comparative Example 11, reference compound]
Production rate of Alvocidib (pH7.4, 0 hr): 1.0% | Residual rate (pH7.4, 0 hr): 92.9% | Conversion to Alvocidib at pH 7.4: slowly converted to Alvocidib | Production rate of Alvocidib (pH7.4, 0.5 hr): 1.2% | Residual rate (pH7.4, 0.5 hr): 92.3% | Production rate of Alvocidib (pH7.4, 1 hr): 1.3% | Residual rate (pH7.4, 1 hr): 91.8% | Production rate of Alvocidib (pH7.4, 2 hr): 1.5% | Residual rate (pH7.4, 2 hr): 91.3%
